# According to patent US7662789B2, “Peptide substance restoring myocardium function” (“Access Bioscience” CJSC, priority 2004, dated 2010):
# Where a SMILES comes first, the peptide text is derived from it.
# Tested on: male guinea pigs
# Assay: Chronic toxicity, 6 months intramuscular in guinea pigs
# Description: Common toxicity of Ala-Glu-Asp-Arg (SEQ ID NO:1) tetrapeptide was studied in compliance with the requirements stated in “Manual for experimental (pre-clinical) study of new pharmaceutical substances” (2000): acute toxicity in case of single administration of the substance, as well as sub-acute and chronic toxicity in case of long-term administration of the tetrapeptide.
# The studies of chronic toxicity were conducted for 6 months, basing on the duration of the recommended clinical administration of the preparation, on 96 male guinea pigs with body weight of 300-340 g. The experimental animals received the tetrapeptide daily, once a day, intramuscularly, for 6 months in the doses of 1 μg/kg, 0.1 mg/kg and 1 mg/kg in 0.5 ml of 0.9% NaCl solution. The control animals received 0.9% NaCl solution in the same volume and by the same schedule. Common methods were used for the identification of the quantity of erythrocytes, hemoglobin, reticulocytes, thrombocytes, leukocytes, as well as of the leukocyte formula, erythrocyte sedimentation rate (ESR) and erythrocyte resistance in the peripheric blood of the animals. Alongside with this general protein content in the blood serum was estimated by Lowry's method, as well as of potassium and sodium using the method of plasma spectrophotometry. After the completion of the experiment the pathomorphological study of the brain and spinal cord, spinal cord ganglia, thyroid gland, parathyroid glands, adrenal glands, testis, pituitary gland, heart, lungs, aorta, liver, kidney, urinary bladder, pancreas, stomach, small intestine, large intestine, thymus, spleen, lymph nodes and bone marrow was conducted.
compound,measurement,setting,value
"C[C@H](N)C(=O)N[C@@H](CCC(=O)O)C(=O)N[C@@H](CC(=O)O)C(=O)N[C@@H](CCCNC(=N)N)C(=O)O [Tetrapeptide, L-alanyl-L-glutamyl-L-aspartyl-L-arginine] (H-AEDR-OH)",Basophils,"1 μg/kg, 3 months",0.69 ± 0.05%
same,ESR,"1 μg/kg, 3 months",1.87 ± 0.07 mm/hour
same,Eosinophils,"1 μg/kg, 3 months",0.64 ± 0.04%
same,"Erythrocyte resistance, minimum","1 μg/kg, 3 months",0.33 ± 0.02 % NaCl
same,Erythrocytes,"1 μg/kg, 3 months",5.4 ± 0.2 ×10^12/l
same,General protein in the blood serum,"1 μg/kg, 3 months",72.6 ± 3.3 g/L
same,Hemoglobin,"1 μg/kg, 3 months",13.8 ± 1.2
same,Leukocytes,"1 μg/kg, 3 months",11.2 ± 0.8 ×10^9/l
same,Lymphocytes,"1 μg/kg, 3 months",50.7 ± 2.4%
same,Monocytes,"1 μg/kg, 3 months",2.4 ± 0.03%
same,Potassium in the blood serum,"1 μg/kg, 3 months",5.3 ± 1.8 mmol/L
same,Reticulocytes,"1 μg/kg, 3 months",1.2 ± 0.07%
same,Segmented neutrophils,"1 μg/kg, 3 months",44.9 ± 2.5%
same,Sodium in the blood serum,"1 μg/kg, 3 months",154.8 ± 6.8 mmol/L
same,Stab neutrophils,"1 μg/kg, 3 months",0.27 ± 0.07%
same,Thrombocytes,"1 μg/kg, 3 months",143.6 ± 8.4 ×10^9/l
same,Basophils,"1 μg/kg, 6 months",0.71 ± 0.05%
same,ESR,"1 μg/kg, 6 months",2.05 ± 0.04 mm/hour
same,Eosinophils,"1 μg/kg, 6 months",0.75 ± 0.08%
same,"Erythrocyte resistance, maximum","1 μg/kg, 6 months",0.44 ± 0.04 % NaCl
same,"Erythrocyte resistance, minimum","1 μg/kg, 6 months",0.35 ± 0.05 % NaCl
same,Erythrocytes,"1 μg/kg, 6 months",5.2 ± 0.4 ×10^12/l
same,General protein in the blood serum,"1 μg/kg, 6 months",73.1 ± 3.6 g/L
same,Hemoglobin,"1 μg/kg, 6 months",14.2 ± 0.6
same,Leukocytes,"1 μg/kg, 6 months",11.9 ± 0.5 ×10^9/l
same,Lymphocytes,"1 μg/kg, 6 months",52.7 ± 2.2%
same,Monocytes,"1 μg/kg, 6 months",2.5 ± 0.05%
same,Potassium in the blood serum,"1 μg/kg, 6 months",5.4 ± 2.2 mmol/L
same,Reticulocytes,"1 μg/kg, 6 months",1.3 ± 0.08%
same,Segmented neutrophils,"1 μg/kg, 6 months",43.4 ± 3.2%
same,Sodium in the blood serum,"1 μg/kg, 6 months",154.6 ± 6.9 mmol/L
same,Stab neutrophils,"1 μg/kg, 6 months",0.36 ± 0.05%
same,Thrombocytes,"1 μg/kg, 6 months",144.9 ± 9.8 ×10^9/l
same,"Chronic toxicity, side effects","6 months i.m. daily, 1 μg/kg, 0.1 mg/kg, 1 mg/kg, 100-1000 times the therapeutic doses",absence of side effects
same,"General status, blood indices, internal organs, cardiovascular, respiratory, liver and kidney functions",long-term administration,no pathologic changes
